We go through one compound from PMC10507085, “Pharmacological inhibition of TBK1/IKKε blunts immunopathology in a murine model of SARS-CoV-2 infection” (Nature Communications, 2023).

Assay [1] has as its target T1, PIM2 (Homo sapiens, UniProt Q9P1W9). Nature of the assay: biochemical. Further details: KINOMEscan competition binding, DNA-tagged kinase against immobilised ligand, qPCR read-out. As to conditions: read-out: Percent Control.
Assay [2] concerns the target DYRK1B (Homo sapiens, UniProt Q9Y463). As to the kind of experiment: biochemical. As to conditions: read-out: Percent Control.
Assay [3] concerns the target LTK (Homo sapiens, UniProt P29376). As to the kind of experiment: biochemical. As to conditions: read-out: Percent Control.
For assay [4], the target named is T1, PIM2. As to the kind of experiment: biochemical. Further details: KINOMEscan competition binding, DNA-tagged kinase against immobilised ligand, qPCR read-out.
Assay [5] has as its target T2, DRAK1 (Homo sapiens, UniProt Q9UEE5).
T2 construct: gene STK17A
T2 sequence (Q9UEE5 1-414): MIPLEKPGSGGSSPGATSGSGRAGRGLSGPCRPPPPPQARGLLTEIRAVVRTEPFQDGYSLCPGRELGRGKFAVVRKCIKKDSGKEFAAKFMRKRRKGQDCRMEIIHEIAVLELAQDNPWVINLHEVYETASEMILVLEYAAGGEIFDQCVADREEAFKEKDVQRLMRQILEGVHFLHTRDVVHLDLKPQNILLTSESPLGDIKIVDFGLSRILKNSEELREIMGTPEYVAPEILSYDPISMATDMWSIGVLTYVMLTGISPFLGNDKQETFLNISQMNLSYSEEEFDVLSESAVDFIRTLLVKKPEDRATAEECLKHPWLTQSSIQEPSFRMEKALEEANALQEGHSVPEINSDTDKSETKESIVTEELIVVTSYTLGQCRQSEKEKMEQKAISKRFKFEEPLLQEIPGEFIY
Nature of the assay: biochemical. Further details: KINOMEscan competition binding, DNA-tagged kinase against immobilised ligand, qPCR read-out. As to conditions: read-out: Percent Control.

For assay [6], the target named is T2, DRAK1. As to the kind of experiment: biochemical. Further details: KINOMEscan competition binding, DNA-tagged kinase against immobilised ligand, qPCR read-out.
The target in assay [7] is T2, DRAK1. As to the kind of experiment: KINOMEscan competition binding ([…] kinases, […] IDX).
Assay [8] has as its target T3, PFPK5(P.falciparum) (Plasmodium falciparum, UniProt P61075).
T3 construct: gene CRK2
Nature of the assay: biochemical. Further details: KINOMEscan competition binding, DNA-tagged kinase against immobilised ligand, qPCR read-out. The note with it: read-out: Percent Control.

In assay [9] the target is T1, PIM2. As to the kind of experiment: KINOMEscan competition binding ([…] kinases, […] IDX).
Assay [10] deals with T4, TBK1 (TANK-binding kinase 1) (Homo sapiens, UniProt Q9UHD2).
T4 construct: full-length human TBK1, expressed in Sf9, His tag removed by TEV
Nature of the assay: surface plasmon resonance (Biacore T200, steady-state affinity).

Assay [11] concerns the target PKNB(M.tuberculosis) (Mycobacterium tuberculosis, UniProt P9WI81). Nature of the assay: biochemical. Further details: KINOMEscan competition binding, DNA-tagged kinase against immobilised ligand, qPCR read-out. The note with it: read-out: Percent Control.

T1 sequence (Q9P1W9 whole entry): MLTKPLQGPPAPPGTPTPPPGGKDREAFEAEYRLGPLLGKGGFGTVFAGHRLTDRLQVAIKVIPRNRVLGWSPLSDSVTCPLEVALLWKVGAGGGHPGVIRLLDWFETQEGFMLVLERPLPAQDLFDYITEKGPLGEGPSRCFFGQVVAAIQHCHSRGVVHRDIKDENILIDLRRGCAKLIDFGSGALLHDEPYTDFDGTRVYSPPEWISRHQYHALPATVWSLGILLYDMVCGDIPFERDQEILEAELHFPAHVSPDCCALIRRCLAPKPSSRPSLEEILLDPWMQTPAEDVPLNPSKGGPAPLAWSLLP
T4 sequence (Q9UHD2 whole entry): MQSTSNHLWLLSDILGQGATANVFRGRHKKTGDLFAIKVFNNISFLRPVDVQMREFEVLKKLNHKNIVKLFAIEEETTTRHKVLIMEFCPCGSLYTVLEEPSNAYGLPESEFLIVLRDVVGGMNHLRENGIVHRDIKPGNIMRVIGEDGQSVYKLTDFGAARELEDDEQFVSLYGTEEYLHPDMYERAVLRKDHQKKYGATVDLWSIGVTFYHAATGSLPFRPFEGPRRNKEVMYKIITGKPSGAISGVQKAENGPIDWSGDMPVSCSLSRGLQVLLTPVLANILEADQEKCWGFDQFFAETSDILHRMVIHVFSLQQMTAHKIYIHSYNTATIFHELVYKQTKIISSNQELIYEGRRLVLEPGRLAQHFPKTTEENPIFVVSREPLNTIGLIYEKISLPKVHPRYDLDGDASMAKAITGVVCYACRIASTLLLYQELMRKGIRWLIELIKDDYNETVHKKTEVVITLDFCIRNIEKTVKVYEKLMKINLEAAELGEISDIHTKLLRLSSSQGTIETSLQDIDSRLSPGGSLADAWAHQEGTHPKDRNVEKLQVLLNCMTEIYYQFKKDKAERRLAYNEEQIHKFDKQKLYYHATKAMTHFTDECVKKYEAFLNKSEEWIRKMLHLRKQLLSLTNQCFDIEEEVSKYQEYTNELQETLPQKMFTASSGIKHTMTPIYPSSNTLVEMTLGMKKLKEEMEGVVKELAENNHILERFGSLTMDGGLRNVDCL
Chain of DYRK1B (Q9Y463 whole entry): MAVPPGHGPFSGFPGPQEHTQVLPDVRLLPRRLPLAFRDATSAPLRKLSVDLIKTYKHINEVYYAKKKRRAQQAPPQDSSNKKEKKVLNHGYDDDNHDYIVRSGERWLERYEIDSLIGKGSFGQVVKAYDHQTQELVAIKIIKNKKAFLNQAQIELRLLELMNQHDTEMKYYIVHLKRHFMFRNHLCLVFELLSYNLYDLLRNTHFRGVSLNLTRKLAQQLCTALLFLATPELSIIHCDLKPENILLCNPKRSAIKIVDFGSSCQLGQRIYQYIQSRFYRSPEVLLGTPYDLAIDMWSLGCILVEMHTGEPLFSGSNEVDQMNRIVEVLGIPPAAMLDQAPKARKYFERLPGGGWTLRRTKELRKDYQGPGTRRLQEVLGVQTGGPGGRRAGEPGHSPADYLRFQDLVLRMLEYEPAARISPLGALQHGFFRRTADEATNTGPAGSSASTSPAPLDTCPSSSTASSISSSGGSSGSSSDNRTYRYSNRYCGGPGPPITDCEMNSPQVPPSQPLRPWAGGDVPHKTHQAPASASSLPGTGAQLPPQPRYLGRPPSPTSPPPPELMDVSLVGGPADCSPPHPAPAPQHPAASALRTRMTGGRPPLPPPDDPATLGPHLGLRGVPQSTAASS
T3 sequence (P61075 whole entry): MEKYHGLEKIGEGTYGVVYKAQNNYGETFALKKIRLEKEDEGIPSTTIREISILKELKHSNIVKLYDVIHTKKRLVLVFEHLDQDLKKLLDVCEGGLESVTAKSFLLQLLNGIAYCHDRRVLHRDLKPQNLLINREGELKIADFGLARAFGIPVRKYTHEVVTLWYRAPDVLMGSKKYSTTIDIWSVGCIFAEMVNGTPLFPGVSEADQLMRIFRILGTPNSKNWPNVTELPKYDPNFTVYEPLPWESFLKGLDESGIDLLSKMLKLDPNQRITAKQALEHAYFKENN
Chain of PKNB(M.tuberculosis) (P9WI81 whole entry): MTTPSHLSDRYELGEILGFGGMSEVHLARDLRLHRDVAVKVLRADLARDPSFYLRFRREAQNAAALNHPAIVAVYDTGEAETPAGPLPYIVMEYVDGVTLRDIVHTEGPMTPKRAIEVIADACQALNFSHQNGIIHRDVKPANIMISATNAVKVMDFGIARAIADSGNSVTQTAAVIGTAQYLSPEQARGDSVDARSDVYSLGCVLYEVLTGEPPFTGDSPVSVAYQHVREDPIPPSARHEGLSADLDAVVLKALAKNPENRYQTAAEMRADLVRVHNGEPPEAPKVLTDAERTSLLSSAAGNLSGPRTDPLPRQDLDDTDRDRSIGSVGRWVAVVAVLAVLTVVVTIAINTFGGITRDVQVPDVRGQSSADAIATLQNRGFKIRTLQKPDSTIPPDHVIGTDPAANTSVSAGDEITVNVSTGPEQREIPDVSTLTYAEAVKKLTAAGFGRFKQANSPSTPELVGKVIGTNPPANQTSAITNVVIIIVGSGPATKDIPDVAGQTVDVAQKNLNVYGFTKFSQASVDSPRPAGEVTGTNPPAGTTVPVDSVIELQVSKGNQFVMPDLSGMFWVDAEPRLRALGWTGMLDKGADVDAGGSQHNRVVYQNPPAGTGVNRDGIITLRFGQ
Chain of LTK (P29376 whole entry): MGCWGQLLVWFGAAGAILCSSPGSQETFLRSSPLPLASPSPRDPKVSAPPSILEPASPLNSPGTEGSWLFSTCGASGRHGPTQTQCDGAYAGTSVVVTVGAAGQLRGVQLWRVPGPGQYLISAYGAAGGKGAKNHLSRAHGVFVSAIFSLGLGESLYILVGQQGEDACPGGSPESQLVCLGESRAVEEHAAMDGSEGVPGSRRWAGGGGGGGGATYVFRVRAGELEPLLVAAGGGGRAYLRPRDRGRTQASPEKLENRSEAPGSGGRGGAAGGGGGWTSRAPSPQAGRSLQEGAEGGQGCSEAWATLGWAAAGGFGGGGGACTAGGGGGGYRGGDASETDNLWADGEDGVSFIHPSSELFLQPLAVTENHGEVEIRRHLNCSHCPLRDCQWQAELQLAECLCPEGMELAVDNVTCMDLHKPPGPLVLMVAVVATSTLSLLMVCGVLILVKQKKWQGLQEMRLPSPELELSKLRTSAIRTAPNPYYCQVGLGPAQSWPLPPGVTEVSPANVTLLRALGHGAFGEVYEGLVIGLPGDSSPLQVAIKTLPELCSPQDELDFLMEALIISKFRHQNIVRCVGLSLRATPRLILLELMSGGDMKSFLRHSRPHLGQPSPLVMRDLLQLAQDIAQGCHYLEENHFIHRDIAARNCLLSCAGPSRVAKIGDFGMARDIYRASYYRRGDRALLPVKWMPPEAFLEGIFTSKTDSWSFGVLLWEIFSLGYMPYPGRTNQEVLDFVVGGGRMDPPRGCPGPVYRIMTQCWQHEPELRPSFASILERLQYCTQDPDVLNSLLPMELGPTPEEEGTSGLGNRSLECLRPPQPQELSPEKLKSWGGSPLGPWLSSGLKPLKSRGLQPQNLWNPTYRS

For the compound `Oc1ccc(C2=Cc3ccc(O)cc3OC2)cc1` [compound 1, idronoxil], the remaining binding at 10 µM came to 2.6% in [1], 4.3% in assay [5], 95% in assay [8] and 76% in assay [11]. Further, the remaining activity at 10 µM in assay [2] is 27%; in assay [3], 95%. In addition, the Kd came to 2300 nM in assay [4], 1200 nM in assay [6] and 39200 nM in assay [10]. Moreover, the “KINOMEscan competition binding (403 kinases, 10 μM IDX)” value in [7] was “broadly a poor kinase inhibitor, only binding its top two targets (PIM2 and DRAK1) in the micromolar range”; in [9] it was “broadly a poor kinase inhibitor, only binding its top two targets (PIM2 and DRAK1) in the micromolar range”.
